Each block holds one compound with its values, some of them ahead of it. Bridge positions count the residues as written; N and C are the ends. Square brackets hold non-standard residues; d marks the D form. Ends that are not written are not given here. Peptide text beside a SMILES is read from it. * marks the point of attachment. Palmitoyl = CCCCCCCCCCCCCCCC(=O)*; Aib = CC(C)(N)C(=O)O
Legend:
GLP-1 receptor = GLP-1 receptor (Homo sapiens, UniProt P43220); experiment: Functional assay, cAMP synthesis: luciferase reporter in HEK293 cells co-transfected with GLP-1 receptor
GLP-1 receptor, sequence (P43220 24-463, species assumed): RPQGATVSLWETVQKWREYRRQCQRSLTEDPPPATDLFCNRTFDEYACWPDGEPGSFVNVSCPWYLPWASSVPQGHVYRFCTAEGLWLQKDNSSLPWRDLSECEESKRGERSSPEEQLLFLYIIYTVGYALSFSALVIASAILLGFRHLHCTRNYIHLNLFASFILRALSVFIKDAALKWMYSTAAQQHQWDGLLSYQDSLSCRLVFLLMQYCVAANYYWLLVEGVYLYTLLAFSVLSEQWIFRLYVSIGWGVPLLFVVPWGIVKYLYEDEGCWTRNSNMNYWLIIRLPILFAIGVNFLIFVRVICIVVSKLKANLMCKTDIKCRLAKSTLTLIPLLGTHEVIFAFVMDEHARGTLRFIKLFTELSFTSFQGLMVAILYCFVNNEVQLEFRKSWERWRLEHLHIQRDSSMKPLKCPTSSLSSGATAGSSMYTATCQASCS

glucagon receptor = glucagon receptor (Homo sapiens, UniProt P47871); experiment: Functional assay, cAMP synthesis: luciferase reporter in HEK293 cells co-transfected with glucagon receptor
glucagon receptor, sequence (P47871 26-477): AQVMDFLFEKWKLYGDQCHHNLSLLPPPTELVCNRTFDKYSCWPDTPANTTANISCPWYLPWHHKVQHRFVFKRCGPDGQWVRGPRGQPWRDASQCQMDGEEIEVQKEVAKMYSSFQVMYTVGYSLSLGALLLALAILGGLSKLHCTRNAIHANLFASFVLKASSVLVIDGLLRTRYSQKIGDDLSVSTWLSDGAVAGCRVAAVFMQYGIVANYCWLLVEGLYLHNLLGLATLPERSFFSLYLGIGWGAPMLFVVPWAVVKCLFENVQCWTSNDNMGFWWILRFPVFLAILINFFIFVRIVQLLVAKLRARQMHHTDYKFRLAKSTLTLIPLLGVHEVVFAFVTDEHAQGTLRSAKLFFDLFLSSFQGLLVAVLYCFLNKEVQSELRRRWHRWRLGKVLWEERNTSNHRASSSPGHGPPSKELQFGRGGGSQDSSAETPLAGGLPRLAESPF

[1] = DIO mice, i.p. once a week for 2 weeks (Example 30); assay type: in vivo; details: for blood glucose levels in response to a glucose injection: glucose 24 hours after peptide
Method: Changes in body weight of and food intake by the mice were measured 0, 1, 3, 5, 7, 8, 10, 12, and 14 days after injection. Blood glucose levels of the mice were monitored throughout the 14 days. Glucose tolerance tests were performed by injecting a 25% glucose in saline solution 1 hour or 24 hours after administration of the acylated or pegylated peptide and measuring blood glucose levels at −60, 0, 15, 30, 60, or 120 min after the glucose injection.

[2] = Circular dichroism, percent helicity
[3] = Glucose challenge in DIO mice after i.p. peptide (Examples 24, 25); assay type: in vivo; details: 2, 20, 70 nmol/kg i.p.
Method: Diet-induced obesity (DIO) mice were injected intraperitoneally at the −15 min time point with 0.2, 2, 20, or 70 nmol/kg of one of the following:
A saline solution comprising 25% (v/v) glucose was injected at a dose of 1.5 g/kg of body weight at the 0 min time point. Blood glucose levels were measured at the −15, 0, 15, 30, 60, and 120 min time points.
DIO mice were injected intraperitoneally at the −24 hr time point with 70 nmol/kg of one of the following:
A saline solution comprising 25% (v/v) glucose was injected at a dose of 1.5 g/kg of body weight at the 0 min time point. Blood glucose levels were measured at the 0, 15, 30, 60, and 120 min time points.

[4] = GLP-1 receptor knock out (GLP-1R−/−) mice on high-fat diet, one month; assay type: in vivo
[5] = Diet-induced obese C57B6 mice, s.c. Peptide X-PEG / Y-PEG (Examples 45-49); assay type: in vivo
Method: C57BI/6 mice were obtained from Jackson Laboratories and fed a diabetogenic diet from Research Diets, a high sucrose diet with 58% kcal from fat. Mice were single or group-housed on a 12:12-h light-dark cycle at 22° C. with free access to food and water. All studies were approved by and performed according to the guidelines of the Institutional Animal Care and Use Committee of the University of Cincinnati.
Whole body composition (fat and lean mass) was measured using NMR technology (EchoMRI, Houston, Tex.).
Energy intake and expenditure, as well as home-cage activity, were assessed by using a combined indirect calorimetry system (TSE Systems, Bad Homburg, Germany). Oxygen consumption and CO2 production were measured every 45 min for a total of 120 h (including 12 h of adaptation) to determine the respiratory quotient and energy expenditure. Food and water intake and meal patterns were determined continuously for 120 h at the same time as the indirect calorimetry assessments by integration of scales into the sealed cage environment. Meals were defined as food intake events with a minimum duration of 60 s, and a break of 300 s between food intake events. Home-cage locomotor activity was determined using a multidimensional infrared light beam system with beams scanning the bottom and top levels of the cage, and activity being expressed as beam breaks. Stationary motor activity (fidgeting) was defined as consecutive breaks of one single light beam at cage-bottom level, ambulatory movement as breaks of any two different light beams at cage-bottom level, and rearing as simultaneous breaks of light beams on both cage-bottom and the top level.
Blood was collected after a 6-h fast from tail veins using EDTA-coated Microvette tubes (Sarstedt, Nuremberg, Germany) and immediately chilled on ice. After 15 min of centrifugation at 3,000 g and 4° C., plasma was stored at −80° C. Plasma insulin was quantified by a radioimmunoassay from Linco (Sensitive Rat Insulin RIA; Linco Research, St. Charles, Mo.). Plasma TGs and cholesterol levels were measured by enzymatic assay kits (Thermo Electron, Waltham, Mass.). Samples were analyzed individually with the exception that pooled samples (0.25 ml) from 5 animals/group were subjected to fast-performance liquid chromatography (FPLC) gel filtration on two Superose 6 columns connected in series for lipoprotein separation. All assays were performed according to the manufacturer's instructions.
For the determination of glucose tolerance, mice were subjected to 6 h of fasting and injected intraperitoneally (i.p.) with 2 g glucose/kg body wt (50% D-glucose (Sigma) in 0.9% saline) for the glucose tolerance test (GTT). Tail blood glucose levels (mg/dl) were measured by using a hand-held glucometer (TheraSense Freestyle) before (0 min) and at 15, 30, 60, 90, and 120 min after injection.
The 40-kd pegylated peptides Peptides X-PEG and Y-PEG were used as single weekly subcutaneous (s.c) injections in diet-induced obese (D10) C57B6 mice.
Long-term effects of these lower doses on food intake (p=0.95; FIG. 29C) were less impressive than short-term effects with a higher dose (FIG. 27C).

[6] = Diet-induced obese rats, once-a-week injection, 3-week treatment; assay type: in vivo; details: 70 nmol/kg/week, 3 weeks
Method: To determine if the principal phenomenon generalizes across species, both compounds were administered to diet-induced obese rats (mean weight 777.4+/−2.1 g, dose 70 nmol/kg/week, once-a-week injection, 3-week treatment).

[7] = DIO mice, s.c. daily for seven days (Example 32); assay type: in vivo
Excerpt: The acylated glucagon analogs were as follows:

Percent Potency Relative to Native Ligand, GLP-1Rec (GLP-1 receptor; Table 5): 41.5%
Percent Potency Relative to Native Ligand, GLP-1Rec (GLP-1 receptor; Table 9): 41.5%
EC50 (glucagon receptor; EC50, Glucagon Receptor, Table 13): 0.18 nM
EC50 (glucagon receptor; EC50 at Glucagon Receptor, Table 17): 0.203 nM
Percent Potency Relative to Native Ligand, GRec (glucagon receptor; Table 5): 130.1%
Percent Potency Relative to Native Ligand, GRec (glucagon receptor; Table 9): 130.1%
Compound: CSCC[C@H](NC(=O)[C@H](CC(C)C)NC(=O)[C@H](Cc1c[nH]c2ccccc12)NC(=O)[C@H](CCC(N)=O)NC(=O)[C@@H](NC(=O)[C@H](Cc1ccccc1)NC(=O)[C@H](CC(=O)O)NC(=O)[C@H](CCCCN)NC(=O)[C@H](C)NC(=O)[C@H](CCCNC(=N)N)NC(=O)[C@H](CCCNC(=N)N)NC(=O)[C@H](CCC(=O)O)NC(=O)[C@H](CC(=O)O)NC(=O)[C@H](CC(C)C)NC(=O)[C@H](Cc1ccc(O)cc1)NC(=O)[C@H](CCCCN)NC(=O)[C@H](CO)NC(=O)[C@H](Cc1ccc(O)cc1)NC(=O)[C@H](CC(=O)O)NC(=O)[C@H](CO)NC(=O)[C@@H](NC(=O)[C@H](Cc1ccccc1)NC(=O)[C@@H](NC(=O)CNC(=O)[C@H](CCC(N)=O)NC(=O)[C@H](CO)NC(=O)[C@@H](N)Cc1c[nH]cn1)[C@@H](C)O)[C@@H](C)O)C(C)C)C(=O)N[C@@H](CC(N)=O)C(=O)N[C@H](C(N)=O)[C@@H](C)O [E16, K20 Gluc-NH2, HSQGTFTSDYSKYLDERRAKDFVQW LMNTa]

Compound: Peptide A K^10—C14: Peptide A of Example 20 with Lys10 acylated with a C14 fatty acid chain (H[Aib]QGTFTSDK(C14 fatty acid)SKYLDEQAAKEFIC(PEG 40 kDa)WLMNT-NH2)
total body weight ([1]; 40 or 80 nmol/kg, 14 days): reduced as compared to mice injected with the vehicle control
blood glucose levels in response to a glucose injection [1]: lowered in comparison to vehicle control

Compound: GLP-1
Percent Helicity, 0% TFE ([2]; 10 mM phosphate buffer pH 5.9, 0% TFE): 14%
Percent Helicity, 10% TFE ([2]; 10% TFE): 29%
Percent Helicity, 20% TFE ([2]; 20% TFE): 55%

Compound: Peptide A K^10—C8: Chimera 2 with AIB2, Lys10 acylated with C8 fatty acid, Cys24 40K PEG (H[Aib]QGTFTSDK(C8 fatty acid)SKYLDEQAAKEFIC(PEG 40 kDa)WLMNT-NH2)
blood glucose levels in response to a glucose injection [1]: lowered in comparison to vehicle control
ability to lower blood glucose, glucose challenge 15 min after peptide [3]: greatest ability to lower blood glucose

Compound: H(Aib)QGTFTSDYSKYLDEQAAKEFICWLMNT-amide [Peptide Y-PEG]
body weight [4]: significant decrease in body weight
fat mass [4]: significant decrease
total cholesterol ([5]; 70 nmol/kg s.c. Days 0 and 7, evaluated Day 9): 63.0 mg/dL
blood glucose profile (AUC), i.p. glucose challenge ([5]; Day 3): 14183±1072
Blood glucose levels, mean decrease ([5]; weekly s.c. 70 nmol/kg, from Day 3): −32%
decrease in body weight ([5]; weekly s.c. 70 nmol/kg, one month): 28.1%
change in body weight [6]: −20.58+/−2.26%
change in fat mass [6]: −33.76+/−4.76%

EC50 (glucagon receptor; EC50 at Glucagon Receptor, Table 31): 46.1 nM
Compound: CCCCCCCCCCCCCCCC(=O)NCCCC[C@H](NC(=O)[C@H](CC(=O)O)NC(=O)[C@H](CO)NC(=O)[C@@H](NC(=O)[C@H](Cc1ccccc1)NC(=O)[C@@H](NC(=O)CNC(=O)[C@H](CCC(=O)O)NC(=O)C(C)(C)NC(=O)[C@@H](N)Cc1c[nH]cn1)[C@@H](C)O)[C@@H](C)O)C(=O)N[C@@H](CO)C(=O)N[C@@H](CCCCN)C(=O)N[C@@H](Cc1ccc(O)cc1)C(=O)N[C@@H](CC(C)C)C(=O)N[C@@H](CC(=O)O)C(=O)N[C@@H](CCC(=O)O)C(=O)N[C@@H](CCC(N)=O)C(=O)N[C@@H](C)C(=O)N[C@@H](C)C(=O)N[C@@H](CCCCN)C(=O)N[C@@H](CCC(=O)O)C(=O)N[C@@H](Cc1ccccc1)C(=O)N[C@H](C(=O)N[C@@H](C)C(=O)N[C@@H](Cc1c[nH]c2ccccc12)C(=O)N[C@@H](CC(C)C)C(=O)N[C@@H](CCSC)C(=O)N[C@@H](CC(N)=O)C(=O)N[C@H](C(N)=O)[C@@H](C)O)[C@@H](C)CC [compound 647] (H-H[Aib]EGTFTSDK(Palmitoyl)SKYLDEQAAKEFIAWLMNT-NH2; N-terminus assumed)

Compound: CCCCCCCCCCCCCC(=O)NCCCC[C@H](NC(=O)[C@H](CC(=O)O)NC(=O)[C@H](CO)NC(=O)[C@@H](NC(=O)[C@H](Cc1ccccc1)NC(=O)[C@@H](NC(=O)CNC(=O)[C@H](CCC(N)=O)NC(=O)[C@H](CO)NC(=O)C(C)(C)c1c[nH]cn1)[C@@H](C)O)[C@@H](C)O)C(=O)N[C@@H](CO)C(=O)N[C@@H](CCCCN)C(=O)N[C@@H](Cc1ccc(O)cc1)C(=O)N[C@@H](CC(C)C)C(=O)N[C@@H](CC(=O)O)C(=O)N[C@H]1CCC(=O)NCCCC[C@@H](C(=O)N[C@@H](CC(=O)O)C(=O)N[C@@H](Cc2ccccc2)C(=O)N[C@H](C(=O)N[C@@H](CCC(N)=O)C(=O)N[C@@H](Cc2c[nH]c3ccccc23)C(=O)N[C@@H](CC(C)C)C(=O)N[C@@H](CCSC)C(=O)N[C@@H](CC(N)=O)C(=O)N[C@H](C(N)=O)[C@@H](C)O)C(C)C)NC(=O)[C@H](C)NC(=O)[C@H](CCCNC(=N)N)NC(=O)[C@H](CCCNC(=N)N)NC1=O [DMIA1, K10(C14), [E16/K20]-Gluc Amide]
% Activity of GLP-1 (GLP-1 receptor): 30%
% Activity of Glucagon (glucagon receptor; Table 21): 203.7%

Compound: γE-γE-C16 Glucagon Amide: C16 Glucagon Amide with C16 attached to Lys10 through gamma-Glu-gamma-Glu dipeptide spacer
fat mass on Day 7 ([7]; 100 nmol/kg): lowest fat mass
ability to cause weight loss ([7]; 30 or 100 nmol/kg daily s.c.): greatest ability to cause weight loss
decrease of blood glucose levels ([7]; higher dose): worked as well as Liraglutide

Compound: CSCC[C@H](NC(=O)[C@H](CC(C)C)NC(=O)[C@H](Cc1c[nH]c2ccccc12)NC(=O)[C@H](CC(N)=O)NC(=O)[C@@H](NC(=O)[C@H](Cc1ccccc1)NC(=O)[C@H](CCC(=O)O)NC(=O)[C@@H]1CCCCNC(=O)CC[C@H](NC(=O)[C@H](CC(=O)O)NC(=O)[C@H](CC(C)C)NC(=O)[C@H](Cc2ccc(O)cc2)NC(=O)[C@H](CCCCN)NC(=O)[C@H](CO)NC(=O)[C@H](Cc2ccc(O)cc2)NC(=O)[C@H](CC(=O)O)NC(=O)[C@H](CO)NC(=O)[C@@H](NC(=O)[C@H](Cc2ccccc2)NC(=O)[C@@H](NC(=O)CNC(=O)[C@H](CCC(N)=O)NC(=O)[C@H](CO)NC(=O)[C@@H](N)Cc2ccc(O)cc2)[C@@H](C)O)[C@@H](C)O)C(=O)N[C@@H](CCC(N)=O)C(=O)N[C@@H](C)C(=O)N[C@@H](C)C(=O)N1)C(C)C)C(=O)N[C@@H](CC(N)=O)C(=O)NCC(=O)NCC(=O)N1CCC[C@H]1C(=O)N[C@@H](CO)C(=O)N[C@@H](CO)C(=O)NCC(=O)N[C@@H](C)C(=O)N1CCC[C@H]1C(=O)N1CCC[C@H]1C(=O)N1CCC[C@H]1C(=O)N[C@@H](CO)C(N)=O [SEQ ID NO: 555] (H-YSQGTFTSDYSKYLDEQAAKEFVNWLMNGGPSSGAPPPS-NH2; lactam 16-20; N-terminus assumed)
EC50 (glucagon receptor; EC50, Glucagon receptor, Table 18): 0.044 nM

Reference: US8969294B2 (Istituto di Recerche di Biologia Molecolare P. Angeletti …, priority 2008, dated 2015)
